Measured values reported in patent US20230271949A1, “GLP-1R MODULATING COMPOUNDS” (ASCLETIS BIOSCIENCE CO., LTD., priority 2022, published 2023).

What was measured:
GLP-1R [1] = biological target: T1, GLP-1R (Homo sapiens, UniProt P43220); experiment: GLP-1R agonist cAMP stimulation assay (HTRF cAMP); assay type: cell-based; settings: HEK293 cell line expressing GLP-1 target; HTRF cAMP agonist mode, 30 min at RT
Outline: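 GLP-1R-expressing cells were stimulated with 10-point, 3-fold compound dilutions for 30 min at RT; HTRF cAMP detection reagents were then added for 60 min and the 665/615 ratio read. Ratios were converted to cAMP via a standard curve and % activity scaled between DMSO and top-concentration GLP-1(7-37) reference wells.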

GLP-1R [2] = biological target: T1, GLP-1R; experiment: Tag-lite binding assay (competition with GLP-1 receptors red agonist); settings: for IC50: HEK293 GLP-1 cells labeled with SNAP-Lumi4-Tb, red agonist 4.917 nM, 23° C., 2 h; for Ki: calculated from sample IC50 and red agonist Kd
Experimental: B. Tag-Lite Binding Assay
The cell line was constructed by WuXi.
10) Dispense cells into cell plate (1.8 M cells/well in 2 ml medium of 6-well plate, total 4 wells).
Second Day: Tag-Lite Binding Assay
3) The cell culture medium is removed from the 6-well plate and then 1 mL of Tag-lite SNAP-Lumi4-Tb diluted in Tag-lite labeling medium are added gently on the cells.
7) The testing compounds and reference compound are serially diluted with 3-fold, 10 points using Echo, then transfer 100 nL compounds to the assay plate.
8) Add the labeled cells to each well according to the plate map, 10000 cells/10 uL/well. Centrifuge the plate at 1000 rpm for 1 min.
9) Incubate the plate at 23° C., 30 min.
10) Add 50 nL of red agonist (final conc.: 4.917 nM) to destination plate using Echo.
11) Incubate the plate at 23° C. for 2 h.
12) Read the plate on an HTRF® compatible reader (at 665 nm and 620 nm).
% Inhibition=100%−(Ratio−LC)/(HC−LC)*100%
HC: The average ratio of adding DMSO wells
LC: The average ratio of adding the top concentration of reference compounds wells
b) The “log (inhibitor) vs. response—Variable slope” model in GraphPad Prism 5.0 was used to fit the dose-response curve of each sample. The sample concentration (x) and its corresponding % Inhibition data (y) were substituted into the model. The sample concentration (abscissa) was x=log(x) transformed. The transformed xy was used as the sample curve to obtain the IC50.
c) Calculate the sample Ki according to the sample IC50 and red agonist Kd. S in the formula is the actual used concentration of red agonist.

T1 sequence (P43220 24-463): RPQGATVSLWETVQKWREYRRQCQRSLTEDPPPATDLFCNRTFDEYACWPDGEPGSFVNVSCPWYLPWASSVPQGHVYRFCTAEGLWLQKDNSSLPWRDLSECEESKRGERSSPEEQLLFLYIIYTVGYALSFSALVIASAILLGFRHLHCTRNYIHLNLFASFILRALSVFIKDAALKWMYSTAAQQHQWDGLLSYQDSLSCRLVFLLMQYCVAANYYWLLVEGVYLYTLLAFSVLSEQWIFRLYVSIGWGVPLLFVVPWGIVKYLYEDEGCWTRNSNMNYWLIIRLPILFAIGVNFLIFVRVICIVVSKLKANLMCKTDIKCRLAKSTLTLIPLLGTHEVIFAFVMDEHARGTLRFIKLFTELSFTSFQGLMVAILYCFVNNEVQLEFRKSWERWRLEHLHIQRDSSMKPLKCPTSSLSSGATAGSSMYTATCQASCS

Row | SMILES | EC50 (GLP-1R [1]) [µM] | IC50 (GLP-1R [2]) [µM] | Ki (GLP-1R [2]) [µM]
1 | Cc1n[nH]c2ccc(NC(=O)c3ccc4c(c3)nc(CN3CCC(c5cccc(OCc6ccc(Cl)cc6F)n5)CC3)n4C[C@@H]3CCO3)cc12 [Compound 88] | 0.00445 | 1.84 | 0.92
2 | O=C(NCC(=O)N1C[C@H](O)C[C@H]1C(=O)O)c1ccc2c(c1)nc(CN1CCC(c3cccc(OCc4ccc(Cl)cc4F)n3)CC1)n2C[C@@H]1CCO1 [Compound 2, (2S,4R)-1-((2-((4-(6-((4-chloro-2-fluorobenzyl)oxy)pyridin-2-yl)piperidin-1-yl)methyl)-1-(((S)-oxetan-2-yl)methyl)-1H-benzo[d]imidazole-5-carbonyl)glycyl)-4-hydroxypyrrolidine-2-carboxylic acid] | 0.00032 | 0.345 | 0.165
3 | O=C(Nc1cc(F)c2c(c1)C1(CC1)C(=O)N2)c1ccc2c(c1)nc(CN1CC=C(c3cccc(OCc4ccc(Cl)cc4F)n3)CC1)n2C[C@@H]1CCO1 [Compound 154] | 0.00045 | 1.58 | 0.904
